The values below come from paper PMC8453936, “Development and in vitro Profiling of Dual FXR/LTA4H Modulators” (Chemmedchem, 2021).

The experiment has as its target T1, full-length human FXR (Homo sapiens, UniProt Q96RI1).
T1 construct: coding for the full‐length human nuclear receptors FXR and RXRα; expressed in transfected cells; host or cells: HeLa
T1 sequence (Q96RI1 1-486): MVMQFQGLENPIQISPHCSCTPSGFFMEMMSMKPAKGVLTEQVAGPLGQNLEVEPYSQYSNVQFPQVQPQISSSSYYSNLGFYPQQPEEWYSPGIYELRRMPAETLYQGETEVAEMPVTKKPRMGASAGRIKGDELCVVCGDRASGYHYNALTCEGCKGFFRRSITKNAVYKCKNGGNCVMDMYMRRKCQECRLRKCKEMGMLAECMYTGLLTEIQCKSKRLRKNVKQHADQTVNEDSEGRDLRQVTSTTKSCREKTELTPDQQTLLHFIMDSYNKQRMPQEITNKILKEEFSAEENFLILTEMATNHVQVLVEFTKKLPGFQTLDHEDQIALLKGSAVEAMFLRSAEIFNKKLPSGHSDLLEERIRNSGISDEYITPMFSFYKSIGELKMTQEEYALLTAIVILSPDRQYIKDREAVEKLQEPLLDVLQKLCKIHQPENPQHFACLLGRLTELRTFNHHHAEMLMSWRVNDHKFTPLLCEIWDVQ
T1 sequence (P19793 1-462 partner): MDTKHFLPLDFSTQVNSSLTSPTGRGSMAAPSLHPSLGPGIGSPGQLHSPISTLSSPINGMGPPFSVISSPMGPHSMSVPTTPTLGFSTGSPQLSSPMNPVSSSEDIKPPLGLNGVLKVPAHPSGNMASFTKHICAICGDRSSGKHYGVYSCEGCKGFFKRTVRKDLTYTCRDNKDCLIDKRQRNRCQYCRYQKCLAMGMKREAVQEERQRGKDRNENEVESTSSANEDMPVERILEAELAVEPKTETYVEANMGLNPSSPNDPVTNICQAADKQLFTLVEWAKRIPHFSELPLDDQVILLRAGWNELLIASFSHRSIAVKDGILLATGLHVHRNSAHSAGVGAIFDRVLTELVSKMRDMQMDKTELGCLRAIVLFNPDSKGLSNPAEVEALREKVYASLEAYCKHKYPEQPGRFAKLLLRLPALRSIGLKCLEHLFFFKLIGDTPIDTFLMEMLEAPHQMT
Put plainly: Full-length FXR:RXR reporter gene assay (BSEP promoter, HeLa, transiently transfected). The note with it: mean±S.E.M., n≥3. Format: cell-based. The procedure:
Full‐length FXR:RXR reporter gene assay. HeLa cells were grown in DMEM high glucose supplemented with 10 % FCS, sodium pyruvate (1 mM), penicillin (100 U/mL) and streptomycin (100 μg/mL) at 37 °C and 5 % CO2 and seeded in 96‐well plates 24 h before transfection with a density of 8000 cells per well. 3.5 h before transfection, medium was changed to DMEM high glucose, supplemented with sodium pyruvate (1 mM), penicillin (100 U/mL), streptomycin (100 μg/mL) and 0.5 % charcoal‐stripped FCS. Cells were then transiently transfected with using the calcium phosphate transfection method with pGL3basic‐BSEP[26, 27] (containing a shortened construct of the promotor of the bile salt export protein (BSEP) cloned into the SacI/NheI cleavage site in front of the luciferase gene), pcDNA3‐hFXR[26] and pSG5‐hRXR[38] coding for the full‐length human nuclear receptors FXR and RXRα, and pRL‐SV40 (Promega) for normalization of transfection efficiency and cell growth. 16 h after transfection, medium was changed to DMEM high glucose, supplemented with sodium pyruvate (1 mM), penicillin (100 U/mL), streptomycin (100 μg/mL) and 0.5 % charcoal‐stripped FCS. 24 h after transfection, medium was changed to DMEM without phenol red, supplemented with sodium pyruvate (1 mM), penicillin (100 U/mL), streptomycin (100 μg/mL), L‐glutamine (2 mM) and 0.5 % charcoal‐stripped FCS, now additionally containing 0.1 % DMSO and the respective test compound or 0.1 % DMSO alone as untreated control. Each sample was tested in triplicate wells and each experiment was repeated independently at least three times. Following 24 h incubation with the test compounds, cells were assayed for luciferase activity using Dual‐Glo Luciferase Assay System (Promega) according to the manufacturer's protocol. Luminescence was measured with a Tecan Spark M luminometer (Tecan). Normalization of transfection efficiency and cell growth was done by division of firefly luciferase data by Renilla luciferase data multiplied by 1000 resulting in relative light units (RLU). Fold activation was obtained by dividing the mean RLU of the tested compound at a respective concentration by the mean RLU of untreated control. EC50 and standard error of the mean values were calculated with the mean fold activation values of at least three independent experiments with SigmaPlot 10.0 (Systat Software GmbH, Erkrath, Germany) using a four‐parameter logistic regression.

SMILES strings stand for the structures.

For orientation: EC50 means the midpoint of the concentration-response curve.

Take `O=C(O)c1ccnc(NC(=O)c2ccc(OCCCc3ccccc3)cc2)c1` [compound 19, 2‐(4‐(3‐Phenylpropoxy)benzamido)isonicotinic acid]: the “FXR efficacy (maximum FXR activation relative to 3 μM GW4064)” value (3 μM GW4064 = 100 % activation) was found to be 21±1%. Besides, the EC50 (full-length FXR reporter gene assay, BSEP promoter, HeLa) was determined as 0.46 ± 0.08 µM.
